For 22 molecules, IC50 results are on record in patent publication US11091451B2, “SHMT inhibitors and uses thereof” (Raze Therapeutics, Inc., priority 2016, dated 2021).

SMILES strings stand for the structures.

Assay [1] deals with human cytosolic Serine Hydroxymethyl transferase 1 (SHMT1) (Homo sapiens (Human), UniProt P34896). The experiment in a line: SHMT1 activity inhibition assay (serine production from glycine and CH2-THF, mass spectroscopy). It is filed as biochemical. As to conditions: 60 minutes at room temperature. The text has this: (§1) Full length human cytosolic Serine Hydroxymethyl transferase 1 (SHMT1, residues 1-483 in Uniport ID P34896) was expressed as an N-terminal His6 tagged protein and purified in E. coli using nickel capture followed by size-exclusion chromatography. Human mitochondrial SHMT2 (residues 30-504 in Uniprot ID P34897) with mitochondrial leader sequence deleted was expressed as an N-terminal His6 tagged protein and purified in E. coli using nickel capture followed by size-exclusion chromatography.
(§2) Serine hydroxymethyltransferases catalyze the reversible hydroxymethylation of glycine to serine, with methylene tetrahydrofolate (CH2-THF) providing the additional carbon. SHMT1 and SHMT2 activity was determined by measuring serine production from glycine and CH2-THF using mass spectroscopy. Briefly, 15 ul of 0.5 mM glycine and 0.2 mM CH2-THF in 20 mM TEA, pH8.0, 0.2 mM NADPH were added to 384 well plate containing 0, 0.05 mM, 0.005 mM or 0.0005 mM of inhibitor. 15 ul of SHMT1 or 2 were added to initiate the reaction. The plate was incubated for 60 minutes at room temperature and the reaction was quenched by the addition of 30 ul of 10% trichloroacetic acid. Serine produced was analyzed using Rapidfire 360 and API4000^+ in the positive ion mode.

The target in assay [2] is Human mitochondrial SHMT2 (Homo sapiens (Human), UniProt P34897). Put plainly: SHMT2 activity inhibition assay (serine production from glycine and CH2-THF, mass spectroscopy). In kind it is biochemical. As to conditions: 60 minutes at room temperature.
Text: as §1
as §2, with “15 ul of SHMT1 or 2 were added to initiate the reaction.” left out

human cytosolic Serine Hydroxymethyl transferase 1 (SHMT1), sequence (P34896 whole entry, the tested form may be a part): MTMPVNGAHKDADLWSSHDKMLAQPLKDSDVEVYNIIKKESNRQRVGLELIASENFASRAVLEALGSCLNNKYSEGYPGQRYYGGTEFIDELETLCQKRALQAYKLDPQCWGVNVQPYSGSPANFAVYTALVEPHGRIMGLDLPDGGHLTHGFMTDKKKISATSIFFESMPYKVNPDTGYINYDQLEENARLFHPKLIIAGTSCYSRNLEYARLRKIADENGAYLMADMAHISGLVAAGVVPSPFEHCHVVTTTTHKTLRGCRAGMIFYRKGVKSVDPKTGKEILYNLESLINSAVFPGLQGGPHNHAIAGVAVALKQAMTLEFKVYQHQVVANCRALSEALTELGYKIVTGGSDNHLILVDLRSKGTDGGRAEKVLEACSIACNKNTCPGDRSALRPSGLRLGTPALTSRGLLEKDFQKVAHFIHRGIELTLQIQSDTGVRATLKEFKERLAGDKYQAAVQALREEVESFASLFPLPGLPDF
Human mitochondrial SHMT2, sequence (P34897 30-504): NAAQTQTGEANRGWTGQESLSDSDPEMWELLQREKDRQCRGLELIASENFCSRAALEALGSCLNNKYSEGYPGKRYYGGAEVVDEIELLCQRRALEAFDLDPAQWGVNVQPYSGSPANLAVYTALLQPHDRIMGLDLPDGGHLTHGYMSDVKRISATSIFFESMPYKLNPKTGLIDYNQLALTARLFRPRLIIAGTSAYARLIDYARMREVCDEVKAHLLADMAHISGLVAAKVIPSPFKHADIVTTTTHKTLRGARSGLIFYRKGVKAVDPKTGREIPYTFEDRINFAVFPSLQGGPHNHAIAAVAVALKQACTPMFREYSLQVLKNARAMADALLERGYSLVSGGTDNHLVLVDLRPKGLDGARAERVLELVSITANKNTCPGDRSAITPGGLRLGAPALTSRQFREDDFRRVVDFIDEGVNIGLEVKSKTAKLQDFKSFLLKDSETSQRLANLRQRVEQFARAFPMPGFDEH

`O=C(O)CNC(=O)Cc1csc(-c2ccc(Cl)cc2-c2ccccc2)n1` [Compound I-34, 2-[2-[2-(4-chloro-2-phenylphenyl)-1,3-thiazol-4-yl]acetamido]acetic Acid]: the IC50 in assay [1] and in assay [2] was 10 to 100 µM throughout.
In the case of `C[C@H](NC(=O)Cc1csc(-c2ccc(Cl)cc2Cl)n1)C(=O)O` [Compound I-35], the IC50 in assay [1] and in assay [2] was 10 to 100 µM each time.
Take `O=C(O)CNC(=O)Cc1csc(-c2ccc(Cl)c(-c3ccccc3)c2)n1` [Compound I-36]: the IC50 in assay [1] and in assay [2] was 10 to 100 µM each time.
`O=C(Cc1csc(-c2ccc3c(c2)OCCO3)n1)NC1(C(=O)O)CCC1` [Compound I-37]: the IC50 in assay [1] was 10 to 100 µM; in assay [2] it was 1 to 10 µM.
Taken in the same sequence, the figures for `CC(C(=O)NCC(=O)O)c1csc(-c2ccc(Cl)cc2Cl)n1` (centres unmarked) [Compound I-38] were 10 to 100 µM and 10 to 100 µM.
Taken in the same sequence, the figures for `C[C@H](NC(=O)Cc1csc(-c2cccc(Br)c2)n1)C(=O)O` [Compound I-39] were 10 to 100 µM and 10 to 100 µM.
For `O=C(O)CNC(=O)Cc1csc(-c2ccc(Cl)c3ccccc23)n1` [Compound I-40, 2-[2-[2-(4-chloronaphthalen-1-yl)-1,3-thiazol-4-yl]acetamido]acetic Acid], the IC50 in assay [1] and in assay [2] was 10 to 100 µM each time.
Consider `O=C(O)CNC(=O)Cc1cccc(-c2ccc(Cl)cc2Cl)c1` [Compound I-41], for which the IC50 in assay [1] and in assay [2] was 10 to 100 µM throughout.
Consider `O=C(Cc1csc(-c2ccc(Cl)cc2Cl)n1)N[C@@H](Cc1ccccc1)C(=O)O` [Compound I-42], for which the IC50 lay within 10 to 100 µM in assay [1] and 100 to 500 µM in assay [2].
Taken in the same sequence, the figures for `CC(NC(=O)Cc1csc(-c2cccc(Br)c2)n1)C(=O)O` (centres unmarked) [Compound I-43] were 10 to 100 µM and 10 to 100 µM.
With `NC(=O)NCCC[C@@H](NC(=O)Cc1csc(-c2ccc(F)cc2)n1)C(=O)O` [Compound I-44], the concentration for half-maximal inhibition (IC50) in assay [1] lay in the range of 10 to 100 µM; in assay [2] it was 100 to 500 µM.
Taken in the same sequence, the figures for `O=C(Cc1csc(-c2ccc(Cl)cc2Cl)n1)NC1(C(=O)O)CC1` [Compound I-45] were 10 to 100 µM and 10 to 100 µM.
Taken in the same sequence, the figures for `O=C(O)CNC(=O)Cc1csc(-c2ccc(Cl)cc2Cl)n1` [Compound I-46] were 10 to 100 µM and 10 to 100 µM.
Taken in the same sequence, the figures for `CC(C)C[C@H](NC(=O)Cc1csc(-c2ccc(Cl)cc2Cl)n1)C(=O)O` [Compound I-47] were 100 to 500 µM and 100 to 500 µM.
As for `CSCC[C@H](NC(=O)Cc1csc(-c2ccc(Cl)cc2Cl)n1)C(=O)O` [Compound I-48], the IC50 in assay [1] and in assay [2] was 100 to 500 µM each time.
Consider `O=C(Cc1csc(-c2cccc(Cl)c2)n1)N[C@@H](Cc1c[nH]c2ccccc12)C(=O)O` [Compound I-49], for which the IC50 in assay [1] and in assay [2] was 100 to 500 µM each time.
With `O=C(O)CNC(=O)Cc1csc(-c2ccc(OC(F)(F)F)cc2)n1` [Compound I-50], the IC50 in assay [1] and in assay [2] was 100 to 500 µM each time.
With `CC(C)c1ccc(-c2nc(CC(=O)N[C@@H](Cc3c[nH]c4ccccc34)C(=O)O)cs2)cc1` [Compound I-51], the IC50 in assay [1] and in assay [2] was 100 to 500 µM in each case.
Regarding `O=C(Cc1csc(-c2cccc(Br)c2)n1)N[C@@H](Cc1ccccc1)C(=O)O` [Compound I-52], the IC50 in assay [1] and in assay [2] was 100 to 500 µM throughout.
As for `CC(C)c1ccc(-c2nc(CC(=O)N[C@@H](C(=O)O)c3ccccc3)cs2)cc1` [Compound I-54], the IC50 in assay [1] and in assay [2] was 100 to 500 µM in each case.
As for `O=C(Cc1csc(-c2ccc(Cl)cc2Cl)n1)N[C@@H](C(=O)O)c1ccccc1` [Compound I-55], the IC50 in assay [1] and in assay [2] was 100 to 500 µM each time.
For the molecule `CC(C)c1ccc(-c2nc(CC(=O)N[C@@H](Cc3ccccc3)C(=O)O)cs2)cc1` [Compound I-56], the IC50 in assay [1] and in assay [2] was 100 to 500 µM throughout.
